Read-outs that look alike come from different tables or passages of the source.
Key:
5-HT2A [1] = conditions: Central Nervous System (CNS); cited from earlier work
CAR-induced paw edema = experiment: Carrageenan (CAR)-induced rat paw edema (plethysmometer); conditions: Psilocin alone at 3 and 10 mg/Kg
Description: A study was performed using male Sprague-Dawley rats (200-250 g; Envigo, Milan, Italy). Food and water were accessible ad libitum. Rats were concurrently subjected to a singular subplantar injection of CAR (100 μL of saline solution containing 1% CAR). […] Edema was expressed as the increase in paw volume (mL) after CAR injection relative to the pre-injection value for all animals. Scores were expressed as paw volume difference (mL).

[2] = system: head twitch response in C57BL/6J male mice; type: in vivo
Description: The study of example 2 was performed using C57BL/6J male mice (25-30 g; Envigo, Milan, Italy). The animals were divided into groups of 10 animals each: (a) control, (b) vehicle, and (c) combinations of psilocyn (1 mg/kg) and pinoline (3 or 10 mg/kg). The treated mice were left to fast in the 12 hours prior to administration. Psilocyn and pinoline were resuspended in a solution of EtOH 20%. Mice were subjected to a singular oral administration of compounds. The vehicle group was given the EtOH 20% solution.
After administration, the animals were placed individually in transparent plexiglass cages. […] (See Halberstadt, Adam L., et al. “Differential contributions of serotonin receptors to the behavioral effects of indoleamine hallucinogens in mice.” Journal of psychopharmacology 25.11 (2011): 1548-1561.) (Sun, Yina, et al. “Effects of low-doses of methamphetamine on d-fenfluramine-induced head-twitch response (HTR) in mice during ageing and c-fos expression in the prefrontal cortex.” BMC neuroscience 24.1 (2023): 1-17.).

5-HT2A [3] = conditions: Central Nervous System (CNS); cited from earlier work; remark: listed apart in the source
[4] = system: mechanical allodynia / paw-withdrawal threshold after CAR injection; experiment: Mechanical allodynia, Von Frey hair test after CAR injection; conditions: Psilocin alone at 3 and 10 mg/Kg
Description: A study was performed using male Sprague-Dawley rats (200-250 g; Envigo, Milan, Italy). Food and water were accessible ad libitum. Rats were concurrently subjected to a singular subplantar injection of CAR (100 μL of saline solution containing 1% CAR).
Mechanical allodynia was evaluated using a dynamic plantar Von Frey hair aesthesiometer on time 0 and 1, 2, 3, 4, 5, and 6 days post-injection (Bio-EVF4; Bioseb, Vitrolles, France) as previously described (D'Amico, R.; Fusco, R.; Siracusa, R.; Impellizzeri, D.; Peritore, A. F.; Gugliandolo, E.; Interdonato, L.; Sforza, A. M.; Crupi, R.; Cuzzocrea, S.; et al. Inhibition of P2X7 Purinergic Receptor Ameliorates Fibromyalgia Syndrome by Suppressing NLRP3 Pathway. Int. J. Mol. Sci. 2021, 22, 6471. https://doi.org/10.3390/ijms22126471). The device encloses a force transducer furnished with a plastic tip. When pressure is applied to the tip, the force applied is recorded. The tip was applied to the plantar area of the hind leg, and a rising upward force was exerted until the paw was withdrawn. The withdrawal threshold was defined as the force, expressed in grams, at which the mouse removed the paw.
To investigate whether Psilocin+Pinoline were able to reduce pain associated with CAR injection, a Von Frey test was performed.

Row | SMILES | binding to 5-HT2A receptor (5-HT2A [1]) | anti-inflammatory effects (CAR-induced paw edema) | effect in head twitch test, 11-20 minutes ([2]; 10 mg/kg alone, after 11-20 minutes from administration) | number of head movements ([2]; 10 mg/kg, after 10 minutes from treatment) | activities caused by 5-HT2A binding in the CNS (5-HT2A [3]) | analgesic effects [4] | effect of pinoline on psilocin activity (head twitch) ([2]; pinoline 3 mg/kg with psilocin 1 mg/kg) | effect of pinoline on psilocin activity (head twitch) ([2]; pinoline 10 mg/kg with psilocin 1 mg/kg)
1 | CN(C)CCc1c[nH]c2cccc(O)c12 [Psilocin, 4-hydroxy-N,N-dimethyltryptamine] | known to bind | anti-inflammatory and analgesic effects | finished | important number of head movements | hallucinogenic, anxiolytic, and psychoactive activities | anti-inflammatory and analgesic effects | – | –
2 | COc1ccc2[nH]c3c(c2c1)CCNC3 [Pinoline, pinoline] | – | – | – | – | – | – | prolonged the psilocin (1 mg/kg) activity | prolonged the psilocin (1 mg/kg) activity
3 | CN(C)CCc1c[nH]c2cccc(OP(=O)(O)O)c12 [Psilocybin, 4-phosphoryloxy-N,N-dimethyltryptamine] | known to bind | – | – | – | hallucinogenic, anxiolytic, and psychoactive activities | – | – | –
